Results taken from PMC11989179, “Odor-Binding Protein 2 in Apis mellifera ligustica Plays Important Roles in the Response to Floral Volatiles Stimuli from Melon and Tomato Flowers” (International Journal of Molecular Sciences, 2025).

How the values were obtained:
AmelOBP2 [1] = molecular target: T1, AmelOBP2 (Apis mellifera, UniProt A0A8U0WQ64); assay: Fluorescence competitive binding assay with 1-NPN as probe; set-up: species or system Apis mellifera ligustica; conditions: for Ki: Ki = [IC50]/(1 + [1-NPN]/K1-NPN), read-out: Ki (binding constant); for IC50: odor standard concentration at which AmelOBP2/1-NPN fluorescence is reduced to half; for binding ability to AmelOBP2 (in words): fluorescence competitive binding
Method: The binding ability of the recombinant protein AmelOBP2 to the 14 tomato and 25 melon floral volatiles was determined using a fluorescence competitive binding assay. The IC50 values of the odor standard compounds obtained from the fluorescence competitive binding curve (Figure 6) and the binding constant Ki between AmelOBP2 and the odor standard compounds are shown in Table 1.
(§1) The ability of AmelOBP2 to bind to floral volatiles in tomato and melon greenhouses was determined using an RF-5301PC fluorescence spectrophotometer (Shimadzu, Japan) with […] (1-NPN) (TCI, Japan) as the fluorescence probe (Table A5). The parameters of the RF-5301PC fluorescence spectrophotometer are set as follows: the emission wavelength range is 360–500 nm, the excitation wavelength is 337 nm, and the slit width is 3 nm. This process was similar to that described by Du et al.. Data were processed using GraphPad Prism 8.0. The binding constant (Ki) of AmelOBP2 and odor volatiles were computed using the following equation [26]:Ki = [IC50]/(1 + [1-NPN]/K1-NPN)
IC50 refers to the concentration of the odorant at which the fluorescence intensity of the AmelOBP2/1-NPN complex was reduced by 50%. 1-NPN refers to the concentration of unbound 1-NPN, while K1-NPN refers to the binding constant of the AmelOBP2/1-NPN complex. The smaller the Ki, the stronger the binding ability of the substance to the recombinant protein. Ki values ranging from 0 to 5µM indicate strong binding ability with AmelOBP2.

AmelOBP2 [2] = molecular target: T1, AmelOBP2; assay: Binding curve and Scatchard plot of fluorescence probe 1-NPN to recombinant AmelOBP2; set-up: species or system Apis mellifera ligustica; conditions: Scatchard plot; excitation 337 nm, emission maximum 405 nm; read-out: binding constant between AmelOBP2 and the probe
Method: At an excitation wavelength of 337 nm, no clear fluorescence signal was observed from the AmelOBP2 protein working solution. By adding 3 μL of the 1-NPN solution to the protein working solution successively, the maximum fluorescence intensity was found at 405 nm, and the fluorescence intensity increased with the increase in the probe concentration. The resulting data were then fitted using regression and Scatchard processing to produce a combination curve and linear equation for AmelOBP2 and 1-NPN (Figure 5).
as §1

[3] = tested on: Apis mellifera ligustica antennae; assay: Electroantennogram (EAG) response to compounds under RNAi silencing; format: in vivo; set-up: concentration or dose not given beside the values; conditions: decrease of EAG response in honeybees fed siAmelOBP2
Description: To clarify the physiological function of amelobp2 in the detection of floral volatiles in honeybees, we selected the following five volatiles: e-2-hexenal, e-2-octenal, 1-nonanal, 2-methyl-5-(1-methyl ethenyl)-cyclohexanone, and methyl benzene. Specifically, e-2-hexenal and e-2-octenal are volatiles of melon flowers; 2-methyl-5-(1-methyl ethenyl)-cyclohexanone and methyl benzene are volatiles of tomato flowers; and 1-nonanal is both a melon flower volatile and a tomato flower volatile. The antennal electrical activity of the honeybees was measured after feeding with siAmelOBP2.
Based on the results of the fluorescence competitive binding tests and our previous research involving EAG tests, odor-standard compounds were identified for testing (Table A5). The optimal siRNA and silencing time were determined by an experiment and fed to honeybees. The EAG response was measured using an EAG insect antennal potential measurement system (Syntech, Netherlands). Each measurement was repeated using three antennae. The results of the antennal potential measurements were expressed as the EAG relative response value (rEAG), which was calculated as follows:rEAG = (EAG (X) − EAG (std))/EAG (std)(1)
EAG (X) represents the response amplitude (mV) of the EAG to a given compound, while EAG (std) represents the response amplitude (mV) of the EAG to the reference liquid paraffin at each recording stage.

AmelOBP2 mRNA = assay: RNAi silencing effect on AmelOBP2 mRNA after siRNA feeding (qRT-PCR); format: in vivo, Apis mellifera ligustica; conditions: 8 μg per bee, 20-d-old honeybees
Method: Total RNA and cDNA were obtained according to Du et al.. The obtained cDNA was subjected to qRT-PCR using the SYBR fluorescent dye method (Takara, Japan) (Table A1). The primers were synthesized by Sangon Biotech (Table A2). Data processing refers to Livak and Schmittgen (2^−ΔΔCt method).
Honeybees were collected at 20 d of age from an apiary at the College of Animal Science, Shanxi Agricultural University. Honeybees were randomly divided into 4 groups (n = 40) and starved in an incubator for 30 min (65–70% relative humidity; 28 ± 1 °C). Honeybees were fed with siAmelOBP2 (8 μg per bee dissolved in sucrose solution); the siAmelOBP2 are recorded as siAmelOBP2-1 (79 bp) and siAmelOBP2-2 (329 bp). We used siNC and 30% sucrose solution as the controls. After feeding, the honeybees were placed back in the incubator. At 24, 48, 72, and 96 h, the honeybees were captured randomly in each group, and the silencing effect of RNAi was assessed using qRT-PCR.

T1 sequence (A0A8U0WQ64 entry or part of it): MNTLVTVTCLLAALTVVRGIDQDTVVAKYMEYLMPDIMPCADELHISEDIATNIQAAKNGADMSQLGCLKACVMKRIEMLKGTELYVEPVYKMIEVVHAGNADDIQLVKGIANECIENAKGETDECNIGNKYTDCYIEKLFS

Row | Compound | Ki (AmelOBP2 [1]) [µM] | IC50 (AmelOBP2 [1]) [µM] | also measured
1 | CC=Cc1ccc(OC)c(OC)c1 [1,2-dimethoxy-4-(1-propenyl)-benzene] | 7.68 | 17.2 | 
2 | CC(C)(C)c1cccc(C(C)(C)C)c1 [1,3-bis (1,1-dimethyl ethyl)-benzene] | 2.85 | 6.37 | 
3 | Cc1cccc(C)c1 [1,3-dimethyl-benzene] | 11 | 24.6 | 
4 | c1ccc(Nc2cccc3ccccc23)cc1 [1-NPN] |  |  | Kd (AmelOBP2 [2]): 2 µM
5 | C=C(C)c1ccc(C)cc1 [1-methyl-4-(1-methylethenyl)-benzene] | 6.23 | 13.9 | 
6 | CCCCCCCCC=O [1-nonanal] | 5.26 | 11.8 | Silencing Efficiency (EAG response) [3]: 37.28%
7 | CC(C)C(=O)OCC(C)(C)C(OC(=O)C(C)C)C(C)C (centres unmarked) [2,2,4-trimethyl-1,3-pentanediol diisobutyrate] | 4.92 | 11 | 
8 | Cc1ccc(C)c(C=O)c1 [2,5-dimethyl-benzaldehyde] | 7.12 | 15.9 | 
9 | C=C(C)C1CCC(C)C(=O)C1 (centres unmarked) [2-methyl-5-(1-methylethenyl)-cyclohexanone] | 6.03 | 13.5 | Silencing Efficiency (EAG response) [3]: 32.48%
10 | C=CC(C)(O)CCC=C(C)C (centres unmarked) [3,7-dimethyl-1,6-octadien-3-ol] | 7.01 | 15.7 | 
11 | CC1=CC(=O)C(C(C)C)CC1 (centres unmarked) [3-methyl-6-(1-methylethyl)-2-cyclohexen-1-one] | 11.2 | 25 | 
12 | CCCCCC=CC(C)=O [3-nonen-2-one] | 4.3 | 9.63 | 
13 | O=CC=Cc1ccccc1 [3-phenyl-2-propenal] | 5.69 | 12.7 | 
14 | C=CC(=C)CCCC(=C)C [alpha-myrcene] | 2.76 | 6.18 | 
15 | O=Cc1ccccc1 [benzaldehyde] | 3.74 | 8.37 | 
16 | O=CCc1ccccc1 [benzeneacetaldehyde] | 4.55 | 10.2 | 
17 | O=CCCc1ccccc1 [benzenepropanal] | 7.3 | 16.3 | 
18 | CCCCCCCCCC=O [decanal] | 3.72 | 8.32 | 
19 | COC(=O)c1ccccc1C(=O)OC [dimethyl phthalate] | 5.54 | 12.4 | 
20 | CCCCCCCCCCCC=O [dodecanal] | 1.05 | 2.35 | 
21 | CCCCCCC/C=C/C=O [e-2-decenal] | 2.42 | 5.41 | 

Row | Compound | Ki (AmelOBP2 [1]) [µM] | IC50 (AmelOBP2 [1]) [µM] | also measured
22 | CCC/C=C/C=O [e-2-hexenal] | 2.83 | 6.33 | Silencing Efficiency (EAG response) [3]: 34.64%
23 | CCCCC/C=C/C=O [e-2-octenal] | 7.45 | 16.7 | Silencing Efficiency (EAG response) [3]: 55.20%
24 | CC1=CCC(C(C)C)=CC1 [gamma-terpinene] | 4.16 | 9.31 | 
25 | CCCCCCCCCCCCCCCCCCCCC [heneicosane] | 21.7 | 48.6 | binding ability to AmelOBP2 (in words) (AmelOBP2 [1]): relatively weak binding ability
26 | CCCCCCCCCCCCCCCCC [heptadecane] | 16.7 | 37.3 | 
27 | CCCCCCCCCCCCCCCC [hexadecane] | 30.6 | 68.6 | binding ability to AmelOBP2 (in words) (AmelOBP2 [1]): relatively weak binding ability
28 | CCCCCCCCCCCCCCCC(=O)OCC [hexadecanoic acid, ethyl ester] | 12.8 | 28.8 | binding ability to AmelOBP2 (in words) (AmelOBP2 [1]): exhibited binding ability
29 | Cc1ccccc1 [methyl benzene] | 8.3 | 18.6 | Silencing Efficiency (EAG response) [3]: 28.76%
30 | CCCCCCCCCCCCCCCC(=O)OC [methyl palmitate] |  |  | binding ability to AmelOBP2 (in words) (AmelOBP2 [1]): exhibited binding ability
31 | CCCCCCCCCCCCCCCCCCC [nonadecane] | 14.7 | 33 | 
32 | Cc1ccc(C(C)C)cc1 [p-cymene] | 3.58 | 8.02 | 
33 | CCCCCCCCCCCCCCCCCCCCCCCC [tetracosane] | 13.2 | 29.6 | 
34 | CCCCCCCCCCCCCC [tetradecane] | 8.06 | 18 | 
35 | CC(=O)/C=C/C1=C(C)CCCC1(C)C [trans-β-ionone] | 4.21 | 9.43 | 
36 | C=C1CC/C=C(\C)CC[C@@H]2[C@@H]1CC2(C)C [β-caryophyllene] | 4.84 | 10.8 | 
37 | C=C/C(C)=C/CC=C(C)C [β-ocimene] | 3.75 | 8.4 | 
38 | hexadecenoic acid | 5.29 | 11.8 | 
39 | phytol | 16.2 | 36.3 | 
40 | siAmelOBP2-1: siRNA against AmelOBP2 (79 bp); F: GCAAAGUACAUGGAGUAUUTT, R: AAUACUCCAUGUACUUUGCTT (chemistry not given here) |  |  | silencing efficiency (AmelOBP2 mRNA) (AmelOBP2 mRNA; 72 h after siRNA feeding): 62.86%
41 | siAmelOBP2-2: siRNA against AmelOBP2 (329 bp); F: GGAUCGCGAAUGAGUGCAUTT, R: AUGCACUCAUUCGCGAUCCTT (chemistry not given here) |  |  | silencing efficiency (AmelOBP2 mRNA) (AmelOBP2 mRNA; 24 h after siRNA feeding): 58.87%; silencing efficiency (AmelOBP2 mRNA) (AmelOBP2 mRNA; 48 h after siRNA feeding): 47.35%; silencing efficiency (AmelOBP2 mRNA) (AmelOBP2 mRNA; 72 h after siRNA feeding): 79.83%; silencing efficiency (AmelOBP2 mRNA) (AmelOBP2 mRNA; 96 h after siRNA feeding): 67.19%
